Test results from patent US20140094465A1, “Compounds as S-Nitrosoglutathione Reductase Inhibitors” (N30 PHARMACEUTICALS, INC., priority 2011, published 2014).

Legend:
[1] = Mouse pharmacokinetic (PK) study; type: in vivo; settings: male, BALB/c, plasma, po, 10 mg/kg, male BALB/c mice, 2 mg/kg IV, 10 mg/kg PO, read-out: oral bioavailability (% F)
Description: The mouse was used to determine the pharmacokinetics of compounds of the invention. This species is widely used to assess the bioavailability of compounds by administering both oral (PO) and intravenous (IV) test articles. Efficacy of the compounds of the invention was compared by assessing plasma exposure in male BALB/c mice either via IV or PO administration at the times of peak activity.
Compounds of the invention were reconstituted in a phosphate buffered saline (PBS)/10% Solutol (HS 15) clear solution resulting in a concentration of 0.2 mg/mL and administered to mice (2 mg/kg) as a single IV dose. Animals were dosed via the lateral tail vein. Blood samples were collected at designated time points (0.083, 0.25, 0.5, 1, 2, 4, 8, 16, 24 hours) by cardiac puncture under isoflurane anesthesia (up to 1 mL blood per animal). The blood was collected into tubes containing Li-Heparin. The blood samples were kept on ice until centrifugation within approximately 30 minutes of collection. The plasma was transferred into labeled polypropylene tubes and frozen at −70° C. until analyzed by LC/MS/MS.
The compounds of the invention were reconstituted in 40% Propylene Glycol/40% Propylene Carbonate/20% of a 5% Sucrose clear solution resulting in a concentration of 2 mg/mL and administered to mice (10 mg/kg) as a single oral dose via gavage. Blood samples were collected at 0.25, 0.5, 1, 2, 4, 8, 12, 16, 20 and 24 hours post dose by cardiac puncture under isoflurane anesthesia. The blood was collected in tubes containing Li-Heparin. The blood samples were kept on ice until centrifugation within approximately 30 minutes of collection. The plasma was transferred into labeled polypropylene tubes and frozen at −70° C. until analyzed by LC/MS/MS.
Plasma samples at each timepoint were analyzed using a LC-MS/MS with a lower limit of quantification (LLOQ) of 1 ng/mL. Plasma was analyzed to determine the amount of the compound of the invention in each sample and regression curves generated for each compounds of the invention in the relevant matrixes.
WinNonlin analysis was used for calculating PK parameters for both the IV and PO administrations:
PK parameters for IV portion—AUClast; AUCINF; T1/2; Cl; Vss; Cmax; MRT
PK parameters for PO portion—AUClast; AUCINF; T1/2; Cmax; Cl, MRT.
In addition to the above PK parameters, bioavailability (% F) was calculated.

[2] = test system: dextran sodium sulfate (DSS)-induced IBD; experiment: Acute prophylactic model of DSS-induced IBD; type: in vivo, mouse; settings: for decrease of percent of mice with severe colon injury scores via histopathology / decrease of percent of mice with severe colon injury scores via endoscopy: prophylactic
Description: Acute and chronic models of dextran sodium sulfate (DSS)-induced IBD in mice were used to explore efficacy of GSNORi against this disease. Acute and chronic DSS-induced IBD are widely used and well characterized models that induce pathological changes in the colon similar to those observed in the human disease. In these models and in human disease, epithelial cells within the crypts of the colon are disrupted, leading to dysfunction of the epithelial barrier and the ensuing tissue inflammation, edema, and ulceration. GSNORi therapy may benefit IBD by restoring s-nitrosoglutathione (GSNO) levels, and thus prevent or reverse the epithelial barrier dysfunction. Experimental IBD was induced by administration of DSS in the drinking water of male C57Bl/6 mice (N=8 to 10 mice per group) for 6 consecutive days. GSNORi was dosed orally at doses of 0.1 to 10 mg/kg/day for 10 days starting two days prior to and continuing two days post DSS exposure. […] Levels of circulating cytokines involved in inflammatory pathways were also assessed. The effect of GSNORi was compared to vehicle treated controls. […] Naïve mice (N=5) were also assessed as a normal tissue control.

[3] = test system: cigarette smoke-induced COPD; experiment: Subchronic (11 day) cigarette smoke exposure COPD model; type: in vivo, mouse; settings: subchronic 11 day model
Procedure: Infiltration of inflammatory cells into the bronchoalveolar lavage fluid (BALF) and BALF levels of chemokines involved in inflammation and tissue turnover/repair were measured to assess the influences of GSNOR inhibitors on some of the early events associated with the initiation and progression of COPD. […] In animal models, changes in lung pathology are only evident after extended (several months) duration of exposure to cigarette smoke, thus making chronic models prohibitive as effective screening tools. […] The key roles of inflammation in the initiation and progression of COPD, make these short duration models relevant for initial tests of efficacy of novel therapeutics. Female C57Bl/6 mice (N=10 per group) were exposed to cigarette smoke generated from Marlboro 100 cigarettes without filters. Exposure times were 25 min. on study day 1, 35 min. on study day 2, and 45 min. on study days 3 to 11. GSNOR inhibitors were administered one hour prior to smoke exposure on each day. GSNOR inhibitors were dosed orally at 1 to 10 mg/kg/day for 11 days. […] The effect of GSNOR inhibitors were compared to vehicle treated controls and expressed as percent inhibition of the cigarette smoke induced increases in BALF cell numbers. Roflumilast was used as the positive control for the study and was dosed at 5 mg/kg/day. A group of naïve mice (N=10) was exposed to air and dosed with vehicle as a negative control for the study.

Question: For `O=C(O)c1ccc(-c2ccc3cc(O)ccc3c2)c(F)c1` [III-2], which bioavailability [1] is on record?
Answer: Its bioavailability is over 9%.

Question: And the “decrease of percent of mice with severe colon injury scores via histopathology” value ([2]; oral 10 mg/kg/day for 10 days)?
Answer: Its value is 26 % of vehicle control.

Question: Which results are given for `O=c1c(-c2ccc(-c3nnn[nH]3)cc2)c(C(F)(F)F)oc2cc(O)ccc12` [IV-23]?
Answer: bioavailability [1]: > 9%; decrease of percent of mice with severe colon injury scores via endoscopy ([2]; oral 10 mg/kg/day for 10 days): 75 % of vehicle control; decrease of percent of mice with severe colon injury scores via histopathology ([2]; oral 10 mg/kg/day for 10 days): 17 % of vehicle control

Question: Which “inhibition of smoke-induced increase in eosinophils in BALF” value ([3]; oral 10 mg/kg/day for 11 days) does the source give for `O=c1c2ccc(O)cc2oc(C(F)(F)F)c1[C@H]1CC[C@H](C(=O)O)CC1` [IV-25] here?
Answer: The value was 57%.

Question: And the “inhibition of smoke-induced increase in lymphocytes in BALF” value ([3]; oral 10 mg/kg/day for 11 days)?
Answer: Its value is 24%.

Question: What about the “inhibition of smoke-induced increase in macrophages in BALF” value ([3]; oral 10 mg/kg/day for 11 days) of the same compound?
Answer: The value was 28%.

Question: And the “inhibition of smoke-induced increase in neutrophils in BALF” value ([3]; oral 10 mg/kg/day for 11 days)?
Answer: The value was 25%.

Question: What about the “inhibition of smoke-induced increase in total cells in BALF” value ([3]; oral 10 mg/kg/day for 11 days) of the same compound?
Answer: The value was 26%.

Question: What about the bioavailability [1] of the same compound?
Answer: Its bioavailability is over 9%.

Question: And the “decrease of percent of mice with severe colon injury scores via pathology” value ([2]; oral 0.1 mg/kg/day for 10 days)?
Answer: The value was 12 % of vehicle control.

Question: And the “decrease of percent of mice with severe colon injury scores via endoscopy” value ([2]; oral 0.1 mg/kg/day for 10 days)?
Answer: Its value is 38 % of vehicle control.

Question: And the “decrease of percent of mice with severe colon injury scores via endoscopy” value ([2]; oral 1 mg/kg/day for 10 days)?
Answer: Its value is 25 % of vehicle control.

Question: What about the “decrease of percent of mice with severe colon injury scores via histopathology” value ([2]; oral 1 mg/kg/day for 10 days) of the same compound?
Answer: The value was 33 % of vehicle control.

Question: For `O=c1[nH]c(-c2ccc(-c3c(C(F)(F)F)oc4cc(O)ccc4c3=O)cc2)no1` [IV-31], which bioavailability [1] is on record?
Answer: The bioavailability was over 9%.

Question: Which results are given for `O=C(O)c1ccc(-c2c(C(F)(F)F)oc3cc(O)ccc3c2=O)c(F)c1` [IV-38]?
Answer: inhibition of smoke-induced increase in lymphocytes in BAL ([3]; oral 1 mg/kg/day for 11 days): 62%; inhibition of smoke-induced increase in macrophages in BAL ([3]; oral 1 mg/kg/day for 11 days): 44%; inhibition of smoke-induced increase in neutrophils in BAL ([3]; oral 1 mg/kg/day for 11 days): 68%; inhibition of smoke-induced increase in total cells in BAL ([3]; oral 1 mg/kg/day for 11 days): 53%; effects compared with roflumilast ([3]; roflumilast 5 mg/kg/day): comparable to those of roflumilast; bioavailability [1]: > 9%; decrease of percent of mice with severe colon injury scores via endoscopy ([2]; oral 10 mg/kg/day for 10 days): 58 % of vehicle control; decrease of percent of mice with severe colon injury scores via histopathology ([2]; oral 10 mg/kg/day for 10 days): 15 % of vehicle control
